Source: patent US12516295B2, “Generation of pancreatic progenitor cells and beta cells from human pluripotent stem cells” (The Penn State Research Foundation, priority 2018, dated 2026)

Tests used:
[1] = test system: H1 hESCs; test: Growth-factor-free differentiation of hPSCs to SOX17+ DE cells, SOX17 expression by flow cytometry; type: cell-based, human; details: for effect on DE differentiation (result in words): H1 hESCs differentiated with CH, CH+DM or CH+A83-01, day 4 SOX17 by flow cytometry (FIG. 1F); for percentage of cells expressing SOX17: flow cytometry (FIG. 1C); for SOX17+ cells: H1 hESCs, dynamics (FIG. 1E; CH in presence or absence of DM)
Method: (§1) FIG. 1. Growth-factor-free differentiation of SOX17+ DE cells from hPSCs via CH and DM treatment. (A) Human 19-9-11 iPSCs were treated with 6 μM CH at day 0. After treatment, cells were collected from 3 to 21 hours (T) and RNA-seq was performed. The bars for each set from left to right are: T0, T3, T6, T9, T12, T15, T18, T21. (B) Schematic of protocol for defined, growth-factor-free differentiation of hPSCs to SOX17+ cells via treatment with CH and DM. (C-D) H1 hESCs were cultured as indicated in 2B with 1 μM DM plus different CH concentration, ranging from 2 to 10 μM. (C) On day 4 of differentiation, cells were analyzed for SOX17 expression by flow cytometry. (D) Cells were immunostained with a SOX17 antibody on day 4 of differentiation under 6 μM CH plus 1 μM DM treatment. (E) H1 hESCs were differentiated with CH in the presence or absence of DM. From day 1 to day 4, cells were analyzed for SOX17 expression by flow cytometry. (F) H1 hESCs were differentiated with CH, CH plus DM or CH plus A83-01. On day 4 of differentiation, cells were analyzed for SOX17 expression by flow cytometry.
Stage 1: On day 0, medium was changed with RPMI supplemented with 1 μM Dorsomorphin (DM) and 2-10 μM CHIR99021(CH). At day 1-4, medium was changed with RPMI supplemented with B-27 without insulin.
Cells were dissociated into single cells with Accutase for 10 min and then fixed with 1% paraformaldehyde for 30 min at room temperature and stained with primary and secondary antibodies in PBS plus 0.1% Triton X-100 and 0.5% BSA. Data were collected on a BD ACCURI C6 PLUS flow cytometer (BD Biosciences) and analyzed using FlowJo 10. FACS gating was based on the corresponding isotype antibody control.
Here we describe a differentiation protocol without using any growth factors. We first initiated DE differentiation by treating hPSCs with CH+DM. To determine optimal CH concentration for DE differentiation, H1 cells were treated by 2 to 10 μM CH in RPMI for 24 hours, followed by 3 days culture in RPMI with 2% B-27 minus insulin supplement. We analyzed the percentage of SOX17+ cells on day 4 of differentiation via flow cytometry. […] The optimal DE differentiation was achieved when hPSCs were treated by 4 or 6 μM CH (FIG. 1C). On day 4, 85% of cells expressing SOX17 when cells were treated with 6 μM CH plus 1 μM DM, whereas the percentage of cells expressing SOX17 decreased to 20% when treated with 10 μM CH plus 1 μM DM (FIG. 1C). […] Next, the dynamics of DE differentiation was investigated by analyzing SOX17 expression from day 1 to day 4. During differentiation, SOX17+ cells increased from 0% on day 1 to 78% on day 4, indicating DE was gradually developed (FIG. 1E). Furthermore, to evaluate whether our novel DE differentiation protocol depends on endogenous TGFbeta pathway, we differentiated H1 hESCs with CH, CH+DM, and CH+A83-01 (a TGFbeta inhibitor).

[2] = test system: 19-9-11 iPSCs; test: RNA-seq expression profile during CH induced differentiation; type: cell-based, human; details: 6 μM CH
Method: as §1
To understand RNA expression profile during CH induced differentiation, we collected cells following CH treatment every three hours for a total of eight different time points after differentiation (FIG. 1A).

| SMILES | effect on DE differentiation (result in words) [1] | Nodal expression ([2]; 21 hours after treatment, RNA-seq) | RNA expression of several components in the TGF-β signaling pathway ([2]; samples every three hours over 21 hours, RNA-seq (FIG. 1A)) | Sox17+ cells generated ([1]; 10 μM CH treatment (discussion)) [%] | Sox17+ cells generated ([1]; 4 or 6 μM CH treatment (discussion)) | DE differentiation (result in words) ([1]; H1 cells, 2 to 10 μM CH in RPMI for 24 hours, SOX17+ cells on day 4) | percentage of cells expressing SOX17 ([1]; H1 cells, day 4, 6 μM CH plus 1 μM DM) [%] | percentage of cells expressing SOX17 ([1]; H1 cells, day 4, 10 μM CH plus 1 μM DM) [%] | SOX17+ cells ([1]; day 1 of differentiation) [%] | SOX17+ cells ([1]; day 4 of differentiation) [%] |
| --- | --- | --- | --- | --- | --- | --- | --- | --- | --- | --- |
| Cc1cccc(-c2nn(C(=S)Nc3ccccc3)cc2-c2ccnc3ccccc23)n1 [A83-01] | abolished DE differentiation |  |  |  |  |  |  |  |  |  |
| Cc1cnc(-c2cnc(NCCNc3ccc(C#N)cn3)nc2-c2ccc(Cl)cc2Cl)[nH]1 [CH, 6-[[2-[[4-(2,4-Dichlorophenyl)-5-(5-methyl-1H-imidazol-2-yl)-2-pyrimidinyl]amino]ethyl]amino]-3-pyridinecarbonitrile] |  | upregulated | increased | 6 | more than 74% | induced DE differentiation in a dose-dependent manner | 85 | 20 | 0 | 78 |
| c1cc(-c2cnn3cc(-c4ccc(OCCN5CCCCC5)cc4)cnc23)ccn1 [DM, 6-[4-(2-Piperidin-1-ylethoxy)phenyl]-3-pyridin-4-ylpyrazolo[1,5-a]pyrimidine] | promoted this differentiation |  |  |  |  |  |  |  |  |  |
